Measurements from patent US7691901B2, “Carotenoid analogs or derivatives for the inhibition and amelioration of inflammation” (Cardax Pharmaceuticals Inc., priority 2004, dated 2010).

Experiments:
o-tyrosine (oY/F) = test: Thioglycollate/Zymosan-induced peritonitis model: molar ratios of o-tyrosine (oY/F); type: in vivo, mice
Description: Thioglycollate/Zymosan—Induced Peritonitis Model: Wild-type mice were administered either 500 mg/kg body weight of disodium disuccinate astaxanthin (ddAst/Cardax™) in an oil emulsion vehicle, or normal saline (NS) as a negative control, by oral gavage at 24 hours intervals beginning 7 days prior to the induction of peritonitis. Peritonitis was induced experimentally as follows: mice were injected intraperitoneally with 1 ml of 4% by weight thioglycollate (Tg) broth, to induce the recruitment of proinflammatory cells to the peritoneum. Either 16 hours or 72 hours after recruitment, approximately half of the mice were injected intraperitoneally with 250 mg/kg body weight of zymosan (Z) for a further 4 hours. The mice not receiving zymosan underwent no further treatment. Peritoneal lavage was performed in control animals or animals treated with (ddAst) 16 hours post Tg injection, or 20 h following the combination of both Tg injection (16 hours) followed by Z injection (4 hours), as indicated (Tg/Z). Peritoneal lavages were performed with phosphate-buffered saline containing antioxidant (0.1 mM butylated hydroxytoluene (BHT)) and 2 mM of the metal chelator diethylenetriamine pentaacetic acid (DTPA) according to established practices in the art. The lavage suspensions were transferred to screw-capped tubes under an argon atmosphere, and immediately centrifuged at 1000 rpm in a table top microcentrifuge for 10 min at 4° C. to remove whole cells and debris. All analyses of lipid peroxidation products was performed on cell-free lavage supernatants. Cell pellets were resuspended in phosphate-buffered saline containing 0.1 mM BHT and 0.1 mM DTPA, and differential cell counts (macrophages, monocytes, eosinophils, lymphocytes, neutrophils, and erythrocytes) were performed on cytospun preparations of isolated cells according to established procedures in the art.
Electrospray ionization tandem mass spectrometry was used to simultaneously quantify individual molecular species of HETEs, HPETEs, the prostaglandin PGF2α, F2-isoprostanoids, hydroxy- and hydroperoxy-octadecadienoic acids (H(P)ODEs), and their precursors, arachidonic acid (AA) and linoleic acid (LA). Additionally, the molar ratios of o-tyrosine (oY/F). were measured.

superoxide anion = test: Direct superoxide anion scavenging by EPR spectroscopy (DEPMPO spin-trap) in PMA-stimulated isolated human neutrophils; type: cell-based; conditions: aqueous phase; statistical mixture of stereoisomers and individual stereoisomers
Description: Leukocyte Isolation and Preparation. Human polymorphonuclear leukocytes (PMNs) were isolated from freshly sampled venous blood of a single volunteer by Percoll density gradient centrifugation as described previously. Briefly, each 10 mL of whole blood was mixed with 0.8 mL of 0.1 M EDTA and 25 mL of saline. The diluted blood was then layered over 9 mL of Percoll at a specific density of 1.080 g/mL. After centrifugation at 400×g for 20 min at 20° C., the plasma, mononuclear cell, and Percoll layers were removed. Erythrocytes were subsequently lysed by addition of 18 mL of ice-cold water for 30 s, followed by 2 mL of 10× PIPES buffer (25 mM PIPES, 110 mM NaCl, and 5 mM KCl, titrated to pH 7.4 with NaOH). Cells were then pelleted at 4° C., the supernatant was decanted, and the procedure was repeated. After the second hypotonic cell lysis, cells were washed twice with PAG buffer [PIPES buffer containing 0.003% human serum albumin (HSA) and 0.1% glucose]. Afterward, PMNs were counted by light microscopy on a hemocytometer. The isolation yielded PMNs with a purity of >95%. The final pellet was then suspended in PAG-CM buffer (PAG buffer with 1 mM CaCl2 and 1 mM MgCl2). EPR Measurements. All EPR measurements were performed using a Bruker ER 300 EPR spectrometer operating at X-band with a TM110 cavity as previously described. The microwave frequency was measured with a Model 575 microwave counter (EIP Microwave, Inc., San Jose, Calif.). To measure superoxide anion (O2) generation from phorbol-ester (PMA)-stimulated PMNs, EPR spin-trapping studies were performed using the spin trap DEPMPO (Oxis, Portland, Oreg.) at 10 mM. 1×10^6 PMNs were stimulated with PMA (1 ng/mL) and loaded into capillary tubes for EPR measurements. To determine the radical scavenging ability of 3 and 9 in aqueous and ethanolic formulations, PMNs were pre-incubated for 5 minutes with test compound, followed by PMA stimulation.
Instrument settings used in the spin-trapping experiments were as follows: modulation amplitude, 0.32 G; time constant, 0.16 s; scan time, 60 s; modulation frequency, 100 kHz; microwave power, 20 milliwatts; and microwave frequency, 9.76 GHz. The samples were placed in a quartz EPR flat cell, and spectra were recorded. The component signals in the spectra were identified and quantified as reported previously.

[1] = type: physicochemical
Description: Determination of aqueous solubility/dispersibility. 30.13 mg of 3 was added to 1 mL of USP-purified water. The sample was rotated for 2 hours, then centrifuged for 5 minutes. […] A 125-μL aliquot of the solution was then diluted to 25 mL. The sample was analyzed by UV/Vis spectroscopy at 436 nm, and the absorbance was compared to a standard curve compiled from 4 standards of known concentration.
The sample was rotated for 2 hours, then centrifuged for 5 minutes. […] A 125-μL aliquot of the solution was then diluted to 25 mL. The sample was analyzed by UV/Vis spectroscopy at 411 nm, and the absorbance was compared to a standard curve compiled from 4 standards of known concentration.

[2] = Single- and multiple-dose pharmacokinetics of an oral preparation in a murine model; type: in vivo; conditions: oral preparation of the racemic compound in lipophilic emulsion
[3] = test system: ischemia-reperfusion injury; test: Ischemia-reperfusion injury, experimental infarction model; type: in vivo, rodents; conditions: intravenous pretreatment
[4] = 16 Hour Thioglycollate/4 Hour Zymosan
[5] = 72 Hour Thioglycollate/4 Hour Zymosan

Question: For `CC1=C(/C=C/C(C)=C/C=C/C(C)=C/C=C/C=C(C)/C=C/C=C(C)/C=C/C2=C(C)C(=O)C(OC(=O)CCC(=O)O)CC2(C)C)C(C)(C)CC(OC(=O)CCC(=O)O)C1=O` (stereo not shown) [Cardax, disodium disuccinate astaxanthin], which “oY/F (mmol/mol), MEAN” value (o-tyrosine (oY/F); [4]) is on record?
Answer: Its value is 0.145 mmol/mol.

Question: And the “oY/F (mmol/mol), MEDIAN” value (o-tyrosine (oY/F); [4])?
Answer: The value was 0.117 mmol/mol.

Question: What about the “oY/F (mmol/mol), MEAN” value (o-tyrosine (oY/F); 16 Hour Thioglycollate) of the same compound?
Answer: Its value is 0.678 mmol/mol.

Question: What about the “oY/F (mmol/mol), MEDIAN” value (o-tyrosine (oY/F); 16 Hour Thioglycollate) of the same compound?
Answer: The value was 0.521 mmol/mol.

Question: And the “oY/F (mmol/mol), MEAN” value (o-tyrosine (oY/F); [5])?
Answer: The value was 0.249 mmol/mol.

Question: And the “oY/F (mmol/mol), MEDIAN” value (o-tyrosine (oY/F); [5])?
Answer: The value was 0.118 mmol/mol.

Question: What about the “oY/F (mmol/mol), MEAN” value (o-tyrosine (oY/F); 72 Hour Thioglycollate) of the same compound?
Answer: The value was 0.257 mmol/mol.

Question: What about the “oY/F (mmol/mol), MEDIAN” value (o-tyrosine (oY/F); 72 Hour Thioglycollate) of the same compound?
Answer: Its value is 0.198 mmol/mol.

Question: And the “oY/F compared to NS” value (o-tyrosine (oY/F); 16 hours Tg/4 hour Z, 500 mg/kg oral gavage)?
Answer: The value was “significant decrease”.

Question: And the “oY/F (mmol/mol), MEAN” value (o-tyrosine (oY/F); Baseline)?
Answer: Its value is 0.595 mmol/mol.

Question: What about the “oY/F (mmol/mol), MEDIAN” value (o-tyrosine (oY/F); Baseline) of the same compound?
Answer: Its value is 0.565 mmol/mol.

Question: And the “direct scavenging of superoxide anion” value (superoxide anion)?
Answer: Its value is “potent direct scavengers of superoxide anion in the aqueous phase”.

Question: What about the water dispersibility [1] of the same compound?
Answer: The water dispersibility was 8.64 mg/mL.

Question: And the “plasma and tissue levels of nonesterified astaxanthin” value [2]?
Answer: Its value is “significant plasma and tissue levels of nonesterified astaxanthin were achieved”.

Question: What about the “cardioprotection” value [3] of the same compound?
Answer: Its value is “significantly cardioprotective”.

Question: What about the myocardial salvage ([3]; highest dose tested) of the same compound?
Answer: The myocardial salvage was “up to 56%”.
